Assay results from US10047051B2, “Substituted pyridines and method of use” (AbbVie S.á{acute over (.)}r.l., priority 2015, dated 2018).

How the values were obtained:
CFTR G551D mutant = biological target: T1, CFTR G551D mutant (Homo sapiens, UniProt P13569, G551D); assay: YFP-halide influx assay for the CFTR-G551D mutation (HEK293 cells); format: cell-based; conditions: forskolin 10.67 μM
T1 construct: expressed in transfected cells; host or cells: HEK293 cells, reverse transfection with plasmids
Description: (§1) The YFP halide influx assay measured the functionality of the cystic fibrosis Transmembrane Conductance regulator (CFTR) channels. The assay was used to evaluate the capacity of compounds to increase the channel opening of existing mutant CFTR channels in the membrane. It makes use of the observation that the yellow fluorescent protein (YFP) variant YFP H148Q, I152L, F47L has its fluorescence substantially quenched by halide ions like Cl^− and I^− (Galietta, L. J. V., Haggie, P. M., Verkman, A. S., 2001. Green fluorescent protein-based halide indicators with improved chloride and iodide affinities. FEBS Lett. 499, 220-224. doi:10.1016/S0014-5793(01)02561-3).
For this purpose, HEK293-cells were seeded in 96 well plates. During seeding, the cells were reverse-transfected with plasmid vectors that direct the expression of the CFTR G551D mutant and of the YFP reporter. Cells were incubated at 37° C., 5% CO2 for 24 hours so as to allow for sufficient expression of the CFTR protein.
(§2) The I^−-induced quenching of fluorescence was recorded immediately after injection of I^− for 7 seconds. The capacity of a compound to increase the channel opening was directly correlated with the decrease in fluorescence, and was expressed as (1−(fluorescence after 7 seconds (F)/fluorescence before injection (F0))) and an EC50 was derived from a (1−F/F0) vs compound concentration plot.

CFTR ΔF508 mutant = biological target: T2, CFTR ΔF508 mutant (Homo sapiens, UniProt P13569, DEL508-508); assay: YFP-halide influx assay for the CFTR-ΔF508 mutation (CFBE41o- cells); format: cell-based; conditions: forskolin 10.67 μM; for EC50: from (1−F/F0) vs concentration plot
T2 construct: expressed in transfected cells; host or cells: CFBE41o- cells, adenoviral transduction
Description: as §1, with “channels in the cystic fibrosis bronchial epithelium cell line CFBE41o-.” for “channels.”, “open probability” for “channel opening”, “existing” for “existing mutant”, “doi:10.1016/S0014-5793(01)02561-3; Nagai, T., Ibata, K., Park, E. S., Kubota, M., Mikoshiba, K., Miyawaki, A., 2002. A variant of yellow fluorescent protein with fast and efficient maturation for cell-biological applications. Nat. Biotechnol. 20, 87-90. doi: 10.1038/nbt0102-87).” for “doi:10.1016/S0014-5793(01)02561-3).”
For this purpose, CFBE41o-cells were seeded in 384 well plates (3000 CFBE cells/well). One day after seeding, the CFBE cells were transduced with adenoviral vectors that direct the expression of the CFTR ΔF508 mutant and of the YFP reporter. Cells were incubated at 27° C., 5% CO2 for 24 hours so as to allow for the proper folding and migration to the membrane of the CFTR channel or treated with a CFTR modulator during 24 hours at 37° C.
as §2, with “I-induced” for “I^−-induced”, “recorded on an” for “recorded”, “iodide” for “I^−”, “2 minutes on an FDSS/μCell (Hamamatsu).” for “7 seconds.”, “36” for “7”

T2 sequence (P13569 with tags, fused parts or gaps DEL508-508): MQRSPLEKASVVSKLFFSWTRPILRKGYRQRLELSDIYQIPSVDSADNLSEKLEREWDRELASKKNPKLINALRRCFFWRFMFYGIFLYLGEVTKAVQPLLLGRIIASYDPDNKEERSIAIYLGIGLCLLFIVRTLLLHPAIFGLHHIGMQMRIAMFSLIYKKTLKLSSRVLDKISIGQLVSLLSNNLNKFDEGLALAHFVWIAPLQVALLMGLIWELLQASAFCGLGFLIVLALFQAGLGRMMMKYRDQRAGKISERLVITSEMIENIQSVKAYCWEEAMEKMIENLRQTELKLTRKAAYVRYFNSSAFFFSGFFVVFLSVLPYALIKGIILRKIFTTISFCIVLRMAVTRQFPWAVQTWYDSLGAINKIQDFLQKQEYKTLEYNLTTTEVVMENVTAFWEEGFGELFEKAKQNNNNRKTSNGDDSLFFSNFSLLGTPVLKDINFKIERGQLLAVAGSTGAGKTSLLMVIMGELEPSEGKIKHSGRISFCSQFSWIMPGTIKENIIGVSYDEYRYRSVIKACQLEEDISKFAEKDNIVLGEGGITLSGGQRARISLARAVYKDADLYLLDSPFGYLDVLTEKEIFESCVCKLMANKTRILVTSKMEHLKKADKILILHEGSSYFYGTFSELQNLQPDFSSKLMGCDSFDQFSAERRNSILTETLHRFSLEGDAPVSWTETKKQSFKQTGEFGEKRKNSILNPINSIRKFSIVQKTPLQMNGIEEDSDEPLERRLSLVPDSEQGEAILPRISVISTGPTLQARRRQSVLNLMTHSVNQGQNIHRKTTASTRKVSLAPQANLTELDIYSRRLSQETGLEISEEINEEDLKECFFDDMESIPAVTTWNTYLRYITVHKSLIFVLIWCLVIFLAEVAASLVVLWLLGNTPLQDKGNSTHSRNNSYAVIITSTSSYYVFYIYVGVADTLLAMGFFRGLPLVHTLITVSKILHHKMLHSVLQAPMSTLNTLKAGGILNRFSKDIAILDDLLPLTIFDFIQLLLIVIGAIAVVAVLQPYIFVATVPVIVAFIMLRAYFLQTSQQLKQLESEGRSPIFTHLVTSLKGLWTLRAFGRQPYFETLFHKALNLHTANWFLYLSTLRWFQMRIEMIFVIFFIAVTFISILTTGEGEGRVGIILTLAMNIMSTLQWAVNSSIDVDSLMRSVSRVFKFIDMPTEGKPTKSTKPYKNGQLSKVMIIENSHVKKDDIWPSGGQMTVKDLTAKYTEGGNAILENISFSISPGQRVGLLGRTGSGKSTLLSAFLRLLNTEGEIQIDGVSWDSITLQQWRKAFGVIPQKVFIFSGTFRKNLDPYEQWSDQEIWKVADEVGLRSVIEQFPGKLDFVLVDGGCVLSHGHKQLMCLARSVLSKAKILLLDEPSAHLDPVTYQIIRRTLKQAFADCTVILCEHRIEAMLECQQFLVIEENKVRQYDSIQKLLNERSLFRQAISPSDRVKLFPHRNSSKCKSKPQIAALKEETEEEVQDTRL
T1 sequence (P13569 whole entry G551D): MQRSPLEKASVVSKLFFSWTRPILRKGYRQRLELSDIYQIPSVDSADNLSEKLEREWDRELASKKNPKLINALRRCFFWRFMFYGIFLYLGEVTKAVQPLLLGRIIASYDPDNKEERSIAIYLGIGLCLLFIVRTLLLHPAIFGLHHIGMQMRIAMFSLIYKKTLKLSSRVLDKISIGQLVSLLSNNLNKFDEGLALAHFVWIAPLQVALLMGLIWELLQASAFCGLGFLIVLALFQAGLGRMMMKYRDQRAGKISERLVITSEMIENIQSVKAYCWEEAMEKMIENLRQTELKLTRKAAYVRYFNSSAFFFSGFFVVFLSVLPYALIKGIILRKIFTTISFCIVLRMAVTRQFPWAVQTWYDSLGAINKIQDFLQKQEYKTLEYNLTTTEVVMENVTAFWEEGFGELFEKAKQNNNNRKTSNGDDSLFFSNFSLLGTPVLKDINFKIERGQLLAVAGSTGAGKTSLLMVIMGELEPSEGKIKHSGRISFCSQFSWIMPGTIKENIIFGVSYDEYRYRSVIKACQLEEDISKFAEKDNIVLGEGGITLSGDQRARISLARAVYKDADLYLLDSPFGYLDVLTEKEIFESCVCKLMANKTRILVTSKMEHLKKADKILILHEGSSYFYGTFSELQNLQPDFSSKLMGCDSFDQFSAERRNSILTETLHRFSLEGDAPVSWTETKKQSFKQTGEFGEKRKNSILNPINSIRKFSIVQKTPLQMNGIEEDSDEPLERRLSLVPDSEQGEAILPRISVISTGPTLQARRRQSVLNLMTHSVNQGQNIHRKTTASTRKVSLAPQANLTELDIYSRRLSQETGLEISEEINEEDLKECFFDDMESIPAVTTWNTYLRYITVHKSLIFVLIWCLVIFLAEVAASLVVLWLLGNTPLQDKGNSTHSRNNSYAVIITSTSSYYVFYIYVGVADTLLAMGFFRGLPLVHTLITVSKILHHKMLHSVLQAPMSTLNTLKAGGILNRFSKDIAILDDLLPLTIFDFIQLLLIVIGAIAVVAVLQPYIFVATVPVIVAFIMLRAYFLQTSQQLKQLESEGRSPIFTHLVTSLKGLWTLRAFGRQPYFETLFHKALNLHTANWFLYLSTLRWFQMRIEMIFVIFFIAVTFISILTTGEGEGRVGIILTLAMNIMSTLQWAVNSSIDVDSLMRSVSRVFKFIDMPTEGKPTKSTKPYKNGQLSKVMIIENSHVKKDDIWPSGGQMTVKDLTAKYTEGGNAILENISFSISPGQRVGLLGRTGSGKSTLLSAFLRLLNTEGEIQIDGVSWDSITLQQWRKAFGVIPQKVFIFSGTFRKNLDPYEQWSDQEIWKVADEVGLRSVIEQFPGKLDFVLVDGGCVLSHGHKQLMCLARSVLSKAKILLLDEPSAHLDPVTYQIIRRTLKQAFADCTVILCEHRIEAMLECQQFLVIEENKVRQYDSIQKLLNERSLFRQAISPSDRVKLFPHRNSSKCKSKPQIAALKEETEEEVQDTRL

| Compound | % Activation (CFTR G551D mutant) [%] | EC50 (CFTR G551D mutant) [nM] | % Activation (CFTR ΔF508 mutant) [%] | EC50 (CFTR ΔF508 mutant) [nM] |
| --- | --- | --- | --- | --- |
| Nc1cc(S(=O)(=O)c2ccc(C(F)(F)F)cc2)cnc1C(=O)NCCOC(F)(F)F [Compound 240, 3-amino-N-[2-(trifluoromethoxy)ethyl]-5-{[4-(trifluoromethyl)phenyl]sulfonyl}pyridine-2-carboxamide] | 50.6 | 949 | 98.1 | 137 |
| Nc1cc(S(=O)(=O)c2ccc(OC(F)(F)F)cc2)cnc1C(=O)N1CC2(COC2)C1 [Compound 68, (3-amino-5-{[4-(trifluoromethoxy)phenyl]sulfonyl}pyridin-2-yl)(2-oxa-6-azaspiro[3.3]hept-6-yl)methanone] | 54.0 | 1820 | 92.0 | 130 |
| Nc1cc(S(=O)(=O)c2ccc(OC(F)(F)F)cc2)cnc1C(=O)NC1CCOCC1 [Compound 146, 3-amino-N-(tetrahydro-2H-pyran-4-yl)-5-{[4-(trifluoromethoxy)phenyl]sulfonyl}pyridine-2-carboxamide] | 58.4 | 3110 | 88.4 | 91.4 |
| CC(C)[C@H](NC(=O)c1ncc(S(=O)(=O)c2ccc(OC(F)(F)F)cc2)cc1N)C(N)=O [Compound 49, 3-amino-N-[(2S)-1-amino-3-methyl-1-oxobutan-2-yl]-5-{[4-(trifluoromethoxy)phenyl]sulfonyl}pyridine-2-carboxamide] | – | – | 132.0 | 125 |
| CNC(=O)[C@@H](NC(=O)c1ncc(S(=O)(=O)c2ccc(OC(F)(F)F)cc2)cc1N)C(C)(C)C [Compound 47, 3-amino-N-[(2S)-3,3-dimethyl-1-(methylamino)-1-oxobutan-2-yl]-5-{[4-(trifluoromethoxy)phenyl]sulfonyl}pyridine-2-carboxamide] | – | – | 84.8 | 503 |
| COc1ccc(C(CO)NC(=O)c2ncc(S(=O)(=O)c3ccc(OC(F)(F)F)cc3)cc2N)cc1 (stereo not drawn) [Compound 96, 3-amino-N-[2-hydroxy-1-(4-methoxyphenyl)ethyl]-5-{[4-(trifluoromethoxy)phenyl]sulfonyl}pyridine-2-carboxamide] | – | – | 105.0 | 245 |
| CC[C@H](NC(=O)c1ncc(S(=O)(=O)c2ccc(OC(F)(F)F)cc2)cc1N)C(N)=O [Compound 93, 3-amino-N-[(2S)-1-amino-1-oxobutan-2-yl]-5-{[4-(trifluoromethoxy)phenyl]sulfonyl}pyridine-2-carboxamide] | – | – | 96.5 | 95.5 |
| Nc1cc(S(=O)(=O)c2ccc(OC(F)(F)F)cc2)cnc1C(=O)NC1(C(F)(F)F)CCOCC1 [Compound 193, 3-amino-5-{[4-(trifluoromethoxy)phenyl]sulfonyl}-N-[4-(trifluoromethyl)tetrahydro-2H-pyran-4-yl]pyridine-2-carboxamide] | – | – | 26.7 | > 2000 |
| CCNC(=O)C(C)NC(=O)c1ncc(S(=O)(=O)c2ccc(OC(F)(F)F)cc2)cc1N (stereo not drawn) [Compound 43, 3-amino-N-[1-(ethylamino)-1-oxopropan-2-yl]-5-{[4-(trifluoromethoxy)phenyl]sulfonyl}pyridine-2-carboxamide] | – | – | 92.6 | 236 |
| CC(C)C[C@H](NC(=O)c1ncc(S(=O)(=O)c2ccc(OC(F)(F)F)cc2)cc1N)C(N)=O [Compound 56, N^2-[(3-amino-5-{[4-(trifluoromethoxy)phenyl]sulfonyl}pyridin-2-yl)carbonyl]-L-leucinamide] | – | – | 99.4 | 369 |
| Nc1cc(S(=O)(=O)c2ccc(OC(F)(F)F)cc2)cnc1C(=O)NC(CO)CO [Compound 44, 3-amino-N-(1,3-dihydroxypropan-2-yl)-5-{[4-(trifluoromethoxy)phenyl]sulfonyl}pyridine-2-carboxamide] | – | – | 73.9 | 323 |
| Cc1ccc(C(CO)NC(=O)c2ncc(S(=O)(=O)c3ccc(OC(F)(F)F)cc3)cc2N)cc1 (stereo not drawn) [Compound 41, 3-amino-N-[2-hydroxy-1-(4-methylphenyl)ethyl]-5-{[4-(trifluoromethoxy)phenyl]sulfonyl}pyridine-2-carboxamide] | – | – | 101.0 | 184 |
| CC(CC(N)=O)NC(=O)c1ncc(S(=O)(=O)c2ccc(OC(F)(F)F)cc2)cc1N (stereo not drawn) [Compound 55, 3-amino-N-(4-amino-4-oxobutan-2-yl)-5-{[4-(trifluoromethoxy)phenyl]sulfonyl}pyridine-2-carboxamide] | – | – | 37.6 | > 2000 |

The next compounds have a lower EC50 (CFTR ΔF508 mutant) than those just listed; values first:

| % Activation (CFTR G551D mutant) [%] | EC50 (CFTR G551D mutant) [nM] | % Activation (CFTR ΔF508 mutant) [%] | EC50 (CFTR ΔF508 mutant) [nM] | Compound |
| --- | --- | --- | --- | --- |
| 51.9 | 2330 | 97.2 | 50.4 | Nc1cc(S(=O)(=O)c2ccc(OC(F)(F)F)cc2)cnc1C(=O)NCC1(O)CCOC1 (stereo not drawn) [Compound 28, 3-amino-N-[(3-hydroxytetrahydrofuran-3-yl)methyl]-5-{[4-(trifluoromethoxy)phenyl]sulfonyl}pyridine-2-carboxamide] |
| 81.3 | 1120 | 95.5 | 13.8 | Nc1cc(S(=O)(=O)c2ccc(OC(F)(F)F)cc2F)cnc1C(=O)NCC(O)COCC1CC1 (stereo not drawn) [Compound 169, 3-amino-N-[3-(cyclopropylmethoxy)-2-hydroxypropyl]-5-{[2-fluoro-4-(trifluoromethoxy)phenyl]sulfonyl}pyridine-2-carboxamide] |
| 67.8 | 1160 | 119.0 | 41.4 | Nc1cc(S(=O)(=O)c2ccc(OC(F)(F)F)cc2)cnc1C(=O)N1CCC1 [Compound 65, (3-amino-5-{[4-(trifluoromethoxy)phenyl]sulfonyl}pyridin-2-yl)(azetidin-1-yl)methanone] |
| 83.7 | 172 | 96.2 | 3 | Nc1cc(S(=O)(=O)c2ccc(C(F)(F)F)cc2)cnc1C(=O)NC[C@H](O)COCC(F)(F)F [Compound 249, 3-amino-N-[(2S)-2-hydroxy-3-(2,2,2-trifluoroethoxy)propyl]-5-{[4-(trifluoromethyl)phenyl]sulfonyl}pyridine-2-carboxamide] |
| 86.8 | 216 | 101.0 | 4 | CC(C)OCC(O)CNC(=O)c1ncc(S(=O)(=O)c2ccc(OC(F)(F)F)cc2)cc1N (stereo not drawn) [Compound 90, 3-amino-N-[2-hydroxy-3-(propan-2-yloxy)propyl]-5-{[4-(trifluoromethoxy)phenyl]sulfonyl}pyridine-2-carboxamide] |
| – | – | 93.6 | 83.7 | Nc1cc(S(=O)(=O)c2ccc(OC(F)(F)F)cc2)cnc1C(=O)NCCCCO [Compound 45, 3-amino-N-(4-hydroxybutyl)-5-{[4-(trifluoromethoxy)phenyl]sulfonyl}pyridine-2-carboxamide] |
| – | – | 85.2 | 42.5 | Nc1cc(S(=O)(=O)c2ccccc2)c(C2CC2)nc1C(=O)NCCO [Compound 260, 3-amino-6-cyclopropyl-N-(2-hydroxyethyl)-5-(phenylsulfonyl)pyridine-2-carboxamide] |
| – | – | 82.1 | 40 | COC[C@H](O)CNC(=O)c1ncc(S(=O)(=O)c2ccccc2)cc1N [Compound 296, 3-amino-N-[(2R)-2-hydroxy-3-methoxypropyl]-5-(phenylsulfonyl)pyridine-2-carboxamide] |
| – | – | 103.0 | 21.1 | CCNC(=O)CNC(=O)c1ncc(S(=O)(=O)c2ccc(OC(F)(F)F)cc2)cc1N [Compound 48, 3-amino-N-[2-(ethylamino)-2-oxoethyl]-5-{[4-(trifluoromethoxy)phenyl]sulfonyl}pyridine-2-carboxamide] |
